Earlier results as cited in patent US7611910B2, “Method for diagnosis of alzheimer's disease” (Intracell, LLC, priority 1998, dated 2009).

Settings: patients treated with indomethacin

For `COc1ccc2c(c1)c(CC(=O)O)c(C)n2C(=O)c1ccc(Cl)cc1` [indomethacin], the “progression of Alzheimer's disease” value is listed as “reduced progression”.
